# Source: patent US8394776B2, “Use of ursolic acid saponin,oleanolic acid saponin in preparation of increasing leucocytes and/or platelet medicine” (Chengdu Di'Ao Jiuhong Pharmaceutical Factor, priority 2007, dated 2013)
# How the values were obtained:
# [1] = tested on: bone marrow mononuclear cell (BMMNC); assay: Monocytic proliferation in bone marrow of mice cultured in vitro (SRB method); format: cell-based, KunMing mice; details: 1 μg/ml; cultured 5 days; versus blank control
# Text: 15-20 KunMing mice (purchased from Laboratory Animal Center of Zhengzhou University, Henan) of either sex were killed by cervical vertebral dislocation. Bilateral thighbones were isolated and caput femoris was cut off. The marrow was washed repeatedly with serum-free RPMI1640 (Gibco Corp.), the wash solution containing marrow cells was collected, sucked and blew repeatedly with a pipette to make the cells disperse. After standing for a moment, the supernatant was sucked up and centrifugated at 100 g for 3 min to collect the cell pellet. The cells were resuspended in a culture media and brought to a volume of 5 ml. The cell suspension was added to the upper layer of a centrifugal tube containing 5 ml of a lymphocyte separation medium of mice and centrifugated at 400 g for 30 min. The milk-white bone marrow mononuclear cell (BMMNC) layer in the middle of the interface was collected and washed with serum-free medium RPMI1640 for three times to obtain a BMMNC suspension, which was inoculated into a 96-well plate at forty thousand per well after counting. Positive drugs rhG-CSF (recombinant granulocyte colony-stimulating factor, manufactured by QI LU Pharmaceutical Co., LTD., Shandong) or test samples of different concentrations were added, and meanwhile a blank control group without drug was established. They were cultured in a 5% CO2 incubator at 37 for 5 days. Cell proliferation was measured by a conventional SRB (Sigma) method in which OD at 490 nm was measured after being dyed with SRB. The growth rates of cell proliferation after drug treatment were calculated (Growth rate of cell proliferation=experimental group-blank control group/blank control group*100%).
# platelets (PLT) = assay: Cyclophosphamide-induced leukopenia in mice: platelets (PLT); format: in vivo, Kunming mice; details: Experimental Example 3, 0.8 mg/kg; for difference in increasing platelets compared with G-22 (in words): day 5 after modeling
# Method: (§1) Further, in vivo experiments were carried out on the compounds involved in the present invention using animal models of cyclophosphamide-induced leukopenia in mice. Experimental methods are briefed as follows: Healthy Kunming mice, of which half were male and the other half were female, were divided into groups, each group incuding 18 mice, and those mice weighing 18-22 g were selected and divided into groups randomly according to their body weights. Each group was given a different drug, wherein the negative control group and model control group were given physiological saline of the same volume, and the positive control group was treated with granulocyte colony-stimulating factors 40 μg/kg through subcutaneous injection (injection volume: 0.1 ml/10 g). After administration for 3 days, except the negative control group, other treatment groups were treated with 100 mg/kg cyclophosphamide (CY) through lumbar injection once a day for three days to cause a decrease of leukocytes in mice. A drop of blood (20 μl) was taken from posterior orbital venous plexus to detect the hemogram to observe the situation of leukocytes and platelets on day 1, day 3 and/or day 5 after the final lumbar injection of cyclophosphamide (i.e day 1, day 3 and/or day 5 after modeling) (Note: Each treatment group was administrated incessantly). The mice were killed on day 5 after the final lumbar injection of cyclophosphamide (i.e day 5 after modeling), and the leukocytes (WBC) and platelets (PLT) of the hemogram index were counted.
# (§2) The purpose of this experiment is to study the effect of G-1, G-3, G-11 and G-12 of ursolic acid saponin and oleanolic acid saponin in increasing platelets, and to observe whether G-11 and G-12 of oleanolic acid saponin have an effect in increasing leukocytes.
# leukocytes (WBC) = assay: Cyclophosphamide-induced leukopenia in mice: leukocytes (WBC); format: in vivo, Kunming mice; details: 0.8 mg/kg; for effect in increasing leukocytes (in words) / leukocytes, Day 1 after modeling / leukocytes, Day 5 after modeling: Experimental Example 3
# Method: as §1
# This experiment mainly studies the effect of G-1, G-6 and G-8 of ursolic acid saponin in increasing leukocytes, and compares the therapeutic effects of aglycon of ursolic acid and oleanolic acid and of the compound G-22 which has been disclosed by a patent.
# as §2
# WBC = assay: 60Co-γ-induced leukopenia in mice: WBC; format: in vivo, Kunming mice
# Text: In order to illustrate the present invention in detail, with a model induced by ^60Co-γ rays, the effects of G-1 and G-22 on leukocytes of chemotherapy-induced-leukopenia mice were compared. The specific operation and the results are as follows.
# Healthy Kunming mice, of which half were male and the other half were female, were divided into 6 groups randomly, with 17-18 in each group. Blood was taken from caudal vein to determine the normal hemogram (leucocyte, erythrocyte, platelet and hemoglobin), and adjustments were made according to body weights and hemogram results. The normal control group and model group were given isometric physiological saline once a day for 7 days, and then the post-radiation hemogram was determined. Except the normal control group, other groups were each subjected to a whole body exposure to ^60Co-γ rays at a total dose of 3.0 Gy to prepare the models of leukopenia in mice, followed by further administration for 14 days. The G-CSF group was adminitrated through subcutaneous injection for 5 days from the irradiation day on and the hemogram was determined by taking blood respectively on day 3, day 7 and day 14 after irradiation.
# [2] = 0.80 mg/kg i.g., 3.0 Gy whole body
molecule,measurement,setting,value
"CC1CCC2(C(=O)OC3OC(C)C(O)C(O)C3O)CCC3(C)C(=CCC4C5(C)CCC(OC6OC(C)C(O)C(O)C6O)C(C)(C)C5CCC43C)C2C1C [Sample G-2, 3-O-(α-L-rhamnopyranosyl) ursolic acid-28-O-(α-L-rhamnopyranosyl) ester]","Growth Rate of Proliferation %, 1 μg/ml",[1],19.9%
"C[C@H]1[C@H](C)CC[C@]2(C(=O)O)CC[C@]3(C)C(=CC[C@@H]4[C@@]5(C)CC[C@H](O[C@@H]6O[C@@H](C)[C@H](O)[C@@H](O)[C@H]6O)C(C)(C)[C@@H]5CC[C@]43C)[C@H]12 [Sample G-9, 3-O-(α-L-rhamnopyranosyl) ursolic acid]","Growth Rate of Proliferation %, 1 μg/ml",[1],23.4%
"CC1(C)CC[C@]2(C(=O)O)CC[C@]3(C)C(=CC[C@@H]4[C@@]5(C)CC[C@H](O[C@@H]6OC[C@@H](O)[C@H](O)[C@H]6O)C(C)(C)[C@@H]5CC[C@]43C)[C@@H]2C1 [Sample G-15, 3-O-(β-D-xylopyranosyl) oleanolic acid]","Growth Rate of Proliferation %, 1 μg/ml",[1],20.6%
"CC1(C)CCC2(C(=O)OC3OC(COC4OC(CO)C(O)C(O)C4O)C(O)C(O)C3O)CCC3(C)C(=CCC4C5(C)CCC(O)C(C)(C)C5CCC43C)C2C1 (stereo not drawn) [Sample G-18, oleanolic acid-28-O-(β-gentiobiosyl) ester]","Growth Rate of Proliferation %, 1 μg/ml",[1],19.0%
"CC1(C)CC[C@]2(C(=O)O[C@@H]3O[C@H](CO)[C@@H](O)[C@H](O)[C@H]3O)CC[C@]3(C)C(=CC[C@@H]4[C@@]5(C)CC[C@H](O[C@@H]6O[C@H](CO)[C@@H](O)[C@H](O)[C@H]6O)C(C)(C)[C@@H]5CC[C@]43C)[C@@H]2C1 [Sample G-12, 3-O-(β-D-glucopyranosyl) oleanolic acid-28-O-(β-D-glucopyranosyl) ester]",effect in increasing platelets (in words),platelets (PLT),effect in increasing platelets is obvious on day 1 and day 5
same,"platelets, Day 1 after modelng",platelets (PLT),456.88 ± 77.20
same,"platelets, Day 5 after modeling",platelets (PLT),390.86 ± 203.71**★★
same,difference in increasing platelets compared with G-22 (in words),platelets (PLT),significant difference on day 5 compared with G-22
same,effect in increasing leukocytes (in words),leukocytes (WBC),obvious effect in increasing leukocytes at day 1 after modeling
same,"leukocytes, Day 1 after modeling",leukocytes (WBC),1.01 ± 0.55
same,"leukocytes, Day 5 after modeling",leukocytes (WBC),5.48 ± 4.39
same,"Growth Rate of Proliferation %, 1 μg/ml",[1],25.4%
"CC1CCC2(C(=O)O)CCC3(C)C(=CCC4C5(C)CCC(OC6OC(CO)C(O)C(O)C6O)C(C)(C)C5CCC43C)C2C1C [Sample G-10, 3-O-(β-D-galactopyranosyl) ursolic acid]","Growth Rate of Proliferation %, 1 μg/ml",[1],24.2%
"CC1(C)CC[C@]2(C(=O)O)CC[C@]3(C)C(=CC[C@@H]4[C@@]5(C)CC[C@H](O[C@@H]6OC[C@@H](O)[C@@H](O)[C@@H]6O)C(C)(C)[C@@H]5CC[C@]43C)[C@@H]2C1 [Sample G-16, 3-O-(α-L-arabopyranosyl) oleanolic acid]","Growth Rate of Proliferation %, 1 μg/ml",[1],21.6%
ursolic acid-28-O-(α-L-arabopyranosyl) ester [Sample G-5],"Growth Rate of Proliferation %, 1 μg/ml",[1],20.1%
"CC1(C)CC[C@]2(C(=O)O[C@@H]3OC[C@H](O)[C@H](O)[C@H]3O)CC[C@]3(C)C(=CC[C@@H]4[C@@]5(C)CC[C@H](O[C@@H]6OC[C@H](O)[C@H](O)[C@H]6O)C(C)(C)[C@@H]5CC[C@]43C)[C@@H]2C1 [Sample G-11, 3-O-(α-L-arabopyranosyl) oleanolic acid-28-O-(α-L-arabopyranosyl) ester]",effect in increasing platelets (in words),platelets (PLT),effect in increasing platelets is obvious on day 1 and day 5
same,"platelets, Day 1 after modelng",platelets (PLT),465.00 ± 99.28
same,"platelets, Day 5 after modeling",platelets (PLT),385.73 ± 198.30**★
same,difference in increasing platelets compared with G-22 (in words),platelets (PLT),significant difference on day 5 compared with G-22
same,effect in increasing leukocytes (in words),leukocytes (WBC),obvious effect in increasing leukocytes at day 1 after modeling
same,"leukocytes, Day 1 after modeling",leukocytes (WBC),0.94 ± 0.77
same,"leukocytes, Day 5 after modeling",leukocytes (WBC),7.55 ± 4.28
same,"Growth Rate of Proliferation %, 1 μg/ml",[1],26.8%
"C[C@@H]1CC[C@]2(C(=O)O[C@@H]3O[C@H](CO)[C@@H](O)[C@H](O)[C@H]3O)CC[C@]3(C)C(=CC[C@@H]4[C@@]5(C)CC[C@H](O[C@@H]6OC[C@H](O)[C@H](O)[C@H]6O)C(C)(C)[C@@H]5CC[C@]43C)[C@@H]2[C@]1(C)O [Sample G-22, 3-O-(α-L-arabopyranosyl)-19-hydroxy-ursolic acid-28-O-(β-D-glucopyranosyl) ester, reference compound]","platelets, Day 1 after modelng",platelets (PLT),491.36 ± 126.28
same,"platelets, Day 5 after modeling",platelets (PLT),210.00 ± 119.38
same,"leukocytes (WBC), Day 3 after modeling",leukocytes (WBC); Experimental Example 2,5.17 ± 1.77
same,"leukocytes (WBC), Day 5 after modeling",leukocytes (WBC); Experimental Example 2,11.87 ± 9.53
same,"leukocytes (WBC), Day1 after modeling","leukocytes (WBC); Experimental Example 2, CY 100 mg/kg x 3 days",1.08 ± 0.34Δ
same,"leukocytes, Day 1 after modeling",leukocytes (WBC),0.92 ± 0.28
same,"leukocytes, Day 5 after modeling",leukocytes (WBC),8.81 ± 6.44
same,effect on leucocyte count of leukopenia mice (in words),"WBC; 0.80 mg/kg gastric perfusion, versus model group, day 7 and day 14 after irradiation",no evident effect
same,"WBC, 1 week after administration","WBC; 0.80 mg/kg i.g. once a day for 7 days, before irradiation",9.50 ± 3.17 109/L
same,"WBC, Day 3 after irradiation",WBC; [2],2.21 ± 0.92 109/L
same,"WBC, Day 7 after irradiation",WBC; [2],4.08 ± 1.50 109/L
same,"WBC, Day 14 after irradiation",WBC; [2],5.44 ± 1.13 109/L
same,"WBC, Normal","WBC; normal hemogram before administration (baseline), 0.80 mg/kg i.g. group",8.56 ± 2.43 109/L
same,"Growth Rate of Proliferation %, 1 μg/ml",[1],15.2%
"CC1CCC2(C(=O)O)CCC3(C)C(=CCC4C5(C)CCC(OC6OC(CO)C(O)C(O)C6O)C(C)(C)C5CCC43C)C2C1C [Sample G-7, 3-O-(β-D-glucopyranosyl) ursolic acid]","Growth Rate of Proliferation %, 1 μg/ml",[1],23.7%
"CC1(C)CCC2(C(=O)O)CCC3(C)C(=CCC4C5(C)CCC(OC6OC(CO)C(O)C(O)C6O)C(C)(C)C5CCC43C)C2C1 [Sample G-14, 3-O-(β-D-galactopyranosyl) oleanolic acid]","Growth Rate of Proliferation %, 1 μg/ml",[1],19.9%
"CC1(C)CC[C@]2(C(=O)O[C@@H]3O[C@H](CO)[C@@H](O)[C@H](O)[C@H]3O)CC[C@]3(C)C(=CC[C@@H]4[C@@]5(C)CC[C@H](O)C(C)(C)[C@@H]5CC[C@]43C)[C@@H]2C1 [Sample G-17, oleanolic acid-28-O-(β-D-glucopyranosyl) ester]","Growth Rate of Proliferation %, 1 μg/ml",[1],20.6%
"CC1CCC2(C(=O)OC3OC(CO)C(OC4OC(CO)C(O)C(O)C4O)C(O)C3O)CCC3(C)C(=CCC4C5(C)CCC(OC6OCC(O)C(O)C6O)C(C)(C)C5CCC43C)C2C1C [Sample G-4, 3-O-(α-L-arabopyranosyl) ursolic acid-28-O-(β-cellobiosyl) ester]","Growth Rate of Proliferation %, 1 μg/ml",[1],18.0%
"CC1(C)CC[C@]2(C(=O)O)CC[C@]3(C)C(=CC[C@@H]4[C@@]5(C)CC[C@H](O[C@@H]6O[C@H](C(=O)O)[C@@H](O)[C@H](O)[C@H]6O)C(C)(C)[C@@H]5CC[C@]43C)[C@@H]2C1 [Sample G-19, 3-O-(β-D-glucuronopyranosyl) oleanolic acid]","Growth Rate of Proliferation %, 1 μg/ml",[1],20.9%
3-O-(β-D-glucopyranosyl) oleanolic acid [Sample G-13],"Growth Rate of Proliferation %, 1 μg/ml",[1],21.6%
